From patent US20060154871A1, “Peptides” (ReGen Therapeutics PIc, priority 1999, published 2006)

Tested on: rabbits
Assay: Serum antibody titre by ELISA against the corresponding synthetic peptide antigen, before and after the 10 week immunisation of rabbits
Assay type: in vivo, rabbit
Conditions: for Titre: (Serum Dilution) Post Immunization R1: rabbit R1, after 10 week immunisation protocol, 200 μg peptide conjugate per inoculation; for Titre: (Serum Dilution) Pre Immunization R1: rabbit R1, pre immunization serum, ELISA with synthetic peptide antigen; for antigenic response: rabbits R1 and R2, summary of Table 6
From the text: To each N-terminal end of the synthetic peptides, L-cysteine was attached, and the peptide was formed into a ring so that the cysteine group lay between the N-terminal and the C-terminal ends of the synthetic peptide. This facilitated peptide conjugation with Keyhole Hemolymph (KHL). The shorter peptides (i.e. those containing 9 or fewer amino acids) were artificially elongated with biologically inert amino acids prior to attaching the L-cysteine. This was done in order to facilitate annealing and increase the antigenicity of the shorter peptides.
For immunisation, two young adult rabbits (5-6 months old, weighing 5-6 lbs [2.3-2.7 kg]) were used. Each antigen (i.e., each synthetic peptide) was given subcutaneously and intramuscularly in 0.1 ml injections at ten different sites. The protocol used followed the following sequence:
The level of antibodies in the serum was established by ELISA (enzyme-linked immunosorbent assay) with the corresponding synthetic peptide antigen. This technique involved the following steps: • 1. The antigen was diluted with a 0.1 M bicarbonate buffer (pH 9.0) to yield a 10 μg of antigen/ml solution. A volume of 50 μl of this solution was placed into each microwell of a 96 well plate. • 2. The plates were covered and incubated at 37° C. for 3 hours. • 3. The wells were washed with a coupling buffer and blocked using 200 μl of Pierce standard solution of BSA (bovine serum albumin). • 4. 50 μl of dilutent BSA (0.75% soln.) was pipetted into each well. 50 μl of antibody serum sample diluted 1:100 in dilutent BSA were placed in lane A of each row. • 5. 1:2 serial dilutions were performed moving down the plate. • 6. The plates were covered and incubated at room temperature for 60 minutes. • 7. The plates were washed four times with PBS wash solution. • 8. A volume of 50 μl of goat anti-rabbit IgG (H&L) HRP conjugate at 1:1000 dilution in BSA was pipetted into each well and incubated at room temperature for 60 minutes (H&L=heavy and light chain; HRP=horseradish peroxidase). • 9. The plates were washed four times with PBS wash solution. • 10. A volume of 50 μl of substrate solution 2,2′-azino-bis(3-ethylbenzothiazoline-6-sulfonic acid)-diammonium salt (ABTS available from Pierce, which is used to help visualise the extent of the antibody/antigen reaction) was pipetted into each well and incubated at room temperature for about 2 minutes. • 11. The reaction was stopped by adding 50 μl of 1% SDS (sodium dodecyl sulfate) into each well. • 12. The wells were then read on a dynoplate reader at 405.
The data presented in Table 6 show the serum antibody titers against specific antibodies after the 10 week immunisation protocol.

Substance | Titre: (Serum Dilution) Post Immunization R1 | Titre: (Serum Dilution) Pre Immunization R1 | antigenic response
AFLLYQE [Peptide C-12, β-casein precursor peptide, Casein Position 202-208] | 12800 |  | 
ATFNRYQDDHGEEILKSL [Peptide D-1, annexin precursor peptide, Annexin Position 203-220] | 12800 | 0 | 
DLEMPVLPVEPFPFV [Peptide B-7, Colostrinin peptide (possibly) having β-casein homologue precursor] | 25600 | 0 | 
DPPPPQS [Peptide A-7, Colostrinin peptide of unknown precursor] | 3400 | 0 | significantly lower than expected
DQPPDVEKPDLQPFQVQS [Peptide B-10, Colostrinin peptide (possibly) having β-casein homologue precursor] | 12800 | 0 | 
DSQPPV [Peptide B-4] | 25600 | 0 | 
FPPPK [Peptide B-5] | 12800 | 0 | 
KYKLQPE [Peptide B-2, Colostrinin peptide (possibly) having β-casein homologue precursor] | 25600 | 0 | 
LFFFLPVVNVLP [Peptide B-8, Colostrinin peptide (possibly) having β-casein homologue precursor] | 200 | 0 | significantly lower than expected
LKPFPKLKVEVFPFP [Peptide A-4, Colostrinin peptide of unknown precursor] | 6400 | 0 | 
LQTPQPLLQVMMEPQGD [Peptide A-1, Colostrinin peptide of unknown precursor] | 6400 | 0 | significantly lower than expected
MPQNFYKLPQM [Peptide A-2, Colostrinin peptide of unknown precursor] | 6400 | 0 | 
MQPPPLP [Peptide B-9, Colostrinin peptide (possibly) having β-casein homologue precursor] | 3200 | 0 | 
SEEMP [Peptide B-3] | 25600 | 0 | 
SEQP [Peptide A-5] | 3200 | 0 | 
VLEMKFPPPPQETVT [Peptide A-3, Colostrinin peptide of unknown precursor] | 6400 | 0 | 
VLPPNVG [Peptide B-1, Colostrinin peptide (possibly) having β-casein homologue precursor] | 26500 | 0 | 
VVMEV [Peptide B-6] | 25600 | 0 | 
